Tested on: yeast genes (expressed mRNA)
Assay: DNA chip measurement of expressed mRNA of yeast genes after culture with a toxic chemical substance
Type: cell-based, Saccharomyces cerevisiae S288C
Conditions: for The level of expressed mRNA in the presence of chemical substance/The level of expressed mRNA in the absence of chemical substance: cultured two hours with substance; for level of expressed mRNA in the presence of chemical substance / level in the absence of chemical substance: cultured two hours with the chemical substance
Description: Yeast (Saccharomyces cerevisiae S288C (a SUC2mal mel gap2 CUP1)) were cultured at 25° C. on YPD medium (yeast extract 1%, polypeptone 2%, glucose 2%). One of toxic chemical substances was added to the cell at logarithmic growth phase, and the cell was further cultured for two hours. Cell was cultured without any chemical substance in the same condition, and was used as a control. Concentrations of the chemical substances were defined to inhibit the growth of the yeast but not lead to death.
After the completion of cultivation, the culture was centrifuged to collect the cells. To the cells, sodium acetate buffer (50 mM sodium acetate, 10 mM EDTA, 1% SDS) was added, and the mixture was shaken at 65° C. for five minutes, followed by returning to room temperature, and obtaining the supernatant, which procedure was repeated two times. To the supernatant, ½ amount of a solution of phenol/chloroform (1:1) was added, and the mixture was centrifuged to give a supernatant, an equal amount of chloroform was added, and the mixture was centrifuged to give a supernatant. To the supernatant, an equal amount of isopropanol containing 0.3 M sodium acetate was added, and the mixture was allowed to stand at room temperature for 30 minutes, after which the mixture was centrifuged to give sediment of the whole RNAs. Seventy % ethanol was added to the sediment, and the mixture was again centrifuged to give sediment, which was then dried and dissolved in water. mRNA was isolated from the whole RNAs as followings. In view of the fact that a poly A chain is attached to the 3′ terminus of mRNA, a polynucleotide having a poly T structure which was immobilized on the surface of latex beads was used to trap the mRNA, and then the mRNA was washed and eluted with spine column (Oligotex-dT30<Super>mRNA Purification Kit, Takara). Reverse transcription of the mRNA was conducted with a reverse transcriptase (Super Script II Reverse Transcriptase; catalogue No. 18064-014, GibcoBRL) using fluorescence-labeled nucleotides to give cDNAs that were introduced with Cy3-dUTP or Cy5-dUTP during the reverse transcription.
The labeled cDNAs were dissolved in TE buffer (10 mM Tris-HCl/1 mM EDTA, pH 8.0), and the solution was dropped on the DNA chip containing the whole genes of yeast (DNA Chip Research Inc. Japan) so that the cDNAs were hybridized on the DNA chip at 65° C. for over 12 hours. The fluoresces intensity of the DNA chip was read with a scanner, and the ratio relative to the fluorescence intensity resulting from the absence of chemical substance was estimated as the following, which is shown in Tables 1 to 9.
In the Tables, “Intensity” indicated in the rightmost column is a value of the level of expressed mRNA of each gene in control cells as divided by the average level of the expressions of the whole genes. A gene of which mRNA level is lower in control, and is higher in cases of addition of chemical substance, is especially useful in the detection of toxic substances.
Here, when a ratio of an amount of mRNA expressed in the presence of the chemical substance to an amount of mRNA expressed in the absence of the chemical substance is two or more, then it is considered significant.

Na2As [(1)]
The level of expressed mRNA in the presence of chemical substance/The level of expressed mRNA in the absence of chemical substance (yeast gene YJL151C): 1.0
The level of expressed mRNA in the presence of chemical substance/The level of expressed mRNA in the absence of chemical substance (yeast gene YJL152W): 0.9
The level of expressed mRNA in the presence of chemical substance/The level of expressed mRNA in the absence of chemical substance (yeast gene YJL161W): 1.7
The level of expressed mRNA in the presence of chemical substance/The level of expressed mRNA in the absence of chemical substance (yeast gene YJL171C): 2.3
The level of expressed mRNA in the presence of chemical substance/The level of expressed mRNA in the absence of chemical substance (yeast gene YJR008W): 1.6
level of expressed mRNA in the presence of chemical substance / level in the absence of chemical substance (yeast gene YJR030C): 0.7
The level of expressed mRNA in the presence of chemical substance/The level of expressed mRNA in the absence of chemical substance (yeast gene YJR054W): 0.8
level of expressed mRNA in the presence of chemical substance / level in the absence of chemical substance (yeast gene YKL051W): 1.0
The level of expressed mRNA in the presence of chemical substance/The level of expressed mRNA in the absence of chemical substance (yeast gene YKL071W): 8.3
The level of expressed mRNA in the presence of chemical substance/The level of expressed mRNA in the absence of chemical substance (yeast gene YKL086W): 1.0
level of expressed mRNA in the presence of chemical substance / level in the absence of chemical substance (yeast gene YKL097C): 0.9
level of expressed mRNA in the presence of chemical substance / level in the absence of chemical substance (yeast gene YKL100C): 0.7
The level of expressed mRNA in the presence of chemical substance/The level of expressed mRNA in the absence of chemical substance (yeast gene YKL151C): 1.2
The level of expressed mRNA in the presence of chemical substance/The level of expressed mRNA in the absence of chemical substance (yeast gene YKL153W): 1.1
The level of expressed mRNA in the presence of chemical substance/The level of expressed mRNA in the absence of chemical substance (yeast gene YKL195W): 0.8
level of expressed mRNA in the presence of chemical substance / level in the absence of chemical substance (yeast gene YKR040C): 1.2
The level of expressed mRNA in the presence of chemical substance/The level of expressed mRNA in the absence of chemical substance (yeast gene YKR091W): 1.5
The level of expressed mRNA in the presence of chemical substance/The level of expressed mRNA in the absence of chemical substance (yeast gene YLR054C): 2.0
The level of expressed mRNA in the presence of chemical substance/The level of expressed mRNA in the absence of chemical substance (yeast gene YLR149C): 1.4
The level of expressed mRNA in the presence of chemical substance/The level of expressed mRNA in the absence of chemical substance (yeast gene YLR152C): 0.7
The level of expressed mRNA in the presence of chemical substance/The level of expressed mRNA in the absence of chemical substance (yeast gene YLR194C): 2.1
level of expressed mRNA in the presence of chemical substance / level in the absence of chemical substance (yeast gene YLR226W): 1.0
The level of expressed mRNA in the presence of chemical substance/The level of expressed mRNA in the absence of chemical substance (yeast gene YLR324W): 0.7
level of expressed mRNA in the presence of chemical substance / level in the absence of chemical substance (yeast gene YLR338W): 1.1
The level of expressed mRNA in the presence of chemical substance/The level of expressed mRNA in the absence of chemical substance (yeast gene YLR350W): 1.2
The level of expressed mRNA in the presence of chemical substance/The level of expressed mRNA in the absence of chemical substance (yeast gene YLR387C): 0.9
level of expressed mRNA in the presence of chemical substance / level in the absence of chemical substance (yeast gene YLR392C): 1.1
level of expressed mRNA in the presence of chemical substance / level in the absence of chemical substance (yeast gene YLR415C): 1.1
level of expressed mRNA in the presence of chemical substance / level in the absence of chemical substance (yeast gene YLR427W): 0.6
The level of expressed mRNA in the presence of chemical substance/The level of expressed mRNA in the absence of chemical substance (yeast gene YLR460C): 2.1
level of expressed mRNA in the presence of chemical substance / level in the absence of chemical substance (yeast gene YML013W): 0.8
level of expressed mRNA in the presence of chemical substance / level in the absence of chemical substance (yeast gene YML029W): 0.6
level of expressed mRNA in the presence of chemical substance / level in the absence of chemical substance (yeast gene YML041C): 1.2
level of expressed mRNA in the presence of chemical substance / level in the absence of chemical substance (yeast gene YML079W): 1.0
The level of expressed mRNA in the presence of chemical substance/The level of expressed mRNA in the absence of chemical substance (yeast gene YML117W): 0.9
The level of expressed mRNA in the presence of chemical substance/The level of expressed mRNA in the absence of chemical substance (yeast gene YMR009W): 2.3
The level of expressed mRNA in the presence of chemical substance/The level of expressed mRNA in the absence of chemical substance (yeast gene YMR067C): 0.9
level of expressed mRNA in the presence of chemical substance / level in the absence of chemical substance (yeast gene YMR068W): 0.9
level of expressed mRNA in the presence of chemical substance / level in the absence of chemical substance (yeast gene YMR071C): 1.0
The level of expressed mRNA in the presence of chemical substance/The level of expressed mRNA in the absence of chemical substance (yeast gene YMR090W): 6.9
The level of expressed mRNA in the presence of chemical substance/The level of expressed mRNA in the absence of chemical substance (yeast gene YMR095C): 1.1
The level of expressed mRNA in the presence of chemical substance/The level of expressed mRNA in the absence of chemical substance (yeast gene YMR097C): 1.5
The level of expressed mRNA in the presence of chemical substance/The level of expressed mRNA in the absence of chemical substance (yeast gene YMR102C): 1.0
The level of expressed mRNA in the presence of chemical substance/The level of expressed mRNA in the absence of chemical substance (yeast gene YMR107W): 5.0
level of expressed mRNA in the presence of chemical substance / level in the absence of chemical substance (yeast gene YMR160W): 0.8
The level of expressed mRNA in the presence of chemical substance/The level of expressed mRNA in the absence of chemical substance (yeast gene YMR180C): 1.2
The level of expressed mRNA in the presence of chemical substance/The level of expressed mRNA in the absence of chemical substance (yeast gene YMR184W): 1.3
The level of expressed mRNA in the presence of chemical substance/The level of expressed mRNA in the absence of chemical substance (yeast gene YMR191W): 1.3
The level of expressed mRNA in the presence of chemical substance/The level of expressed mRNA in the absence of chemical substance (yeast gene YMR295C): 1.7
The level of expressed mRNA in the presence of chemical substance/The level of expressed mRNA in the absence of chemical substance (yeast gene YMR316W): 3.2
level of expressed mRNA in the presence of chemical substance / level in the absence of chemical substance (yeast gene YNL026W): 0.7
The level of expressed mRNA in the presence of chemical substance/The level of expressed mRNA in the absence of chemical substance (yeast gene YNL044W): 1.3

From patent publication US20100041089A1, “IMPROVED METHOD FOR DETECTING CHEMICAL […]” (priority 2006, published 2010)
